{"source": "paper PMC8612341", "about": "“Cyclic ^68Ga-Labeled Peptides for Specific Detection of Human Angiotensin-Converting Enzyme 2” (Journal of Nuclear Medicine, 2021)", "key": {"[1]": {"molecular_target": "T1, ACE2 (Homo sapiens, UniProt Q9BYF1)", "T1 construct": "purchased AnaSpec AS-72086", "T1 sequence (Q9BYF1 18-805)": "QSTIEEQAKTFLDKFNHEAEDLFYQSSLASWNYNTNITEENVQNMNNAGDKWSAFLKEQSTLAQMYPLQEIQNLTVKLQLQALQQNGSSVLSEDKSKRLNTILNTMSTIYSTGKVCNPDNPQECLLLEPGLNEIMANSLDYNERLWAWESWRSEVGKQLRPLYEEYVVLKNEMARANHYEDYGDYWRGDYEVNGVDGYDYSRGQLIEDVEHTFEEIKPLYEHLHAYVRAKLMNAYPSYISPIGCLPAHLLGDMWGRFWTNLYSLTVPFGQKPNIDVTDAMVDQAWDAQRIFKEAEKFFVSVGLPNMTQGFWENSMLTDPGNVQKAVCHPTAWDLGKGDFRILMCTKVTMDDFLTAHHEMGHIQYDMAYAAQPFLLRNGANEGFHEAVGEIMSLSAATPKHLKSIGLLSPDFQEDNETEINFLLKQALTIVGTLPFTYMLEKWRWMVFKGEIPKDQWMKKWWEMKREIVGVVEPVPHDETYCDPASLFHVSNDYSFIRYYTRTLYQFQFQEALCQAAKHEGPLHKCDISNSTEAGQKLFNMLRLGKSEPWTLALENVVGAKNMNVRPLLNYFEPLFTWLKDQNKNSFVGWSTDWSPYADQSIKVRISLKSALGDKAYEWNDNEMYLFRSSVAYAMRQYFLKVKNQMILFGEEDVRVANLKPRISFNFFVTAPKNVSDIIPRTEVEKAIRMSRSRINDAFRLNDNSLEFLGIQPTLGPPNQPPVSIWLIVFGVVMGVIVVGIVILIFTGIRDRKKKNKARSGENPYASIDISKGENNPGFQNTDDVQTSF", "experiment": "ACE2 inhibition assay (SensoLyte 390 ACE2 Activity Assay Kit, fluorimetric, AnaSpec)", "format": "biochemical", "details": "for IC50: nonlinear fit of 6-point dilution series, Fig. 2D", "description": "Six DX600-derived peptides, named NOTA-PEP1 to NOTA-PEP6 (cyclic vs. noncyclic, with triglycine, aminocaproate, and polyethylene glycol linkers), were studied using a commercially available ACE2 inhibition assay according to the manufacturer’s instructions (SensoLyte 390 ACE2 Activity Assay Kit *Fluorimetric*, AS-72086; AnaSpec). Each peptide inhibitor was first tested at 4 concentrations. Initial velocities were determined relative to the inhibitor free reaction. Subsequently, IC50 values were derived from nonlinear fits of saturation curves of a 6-point dilution series of peptide inhibitors."}, "[2]": {"molecular_target": "T1, ACE2", "set-up": "method as in earlier work", "details": "vs. ACE and carboxypeptidase A; ref 30 (Huang et al.); cited from earlier work"}, "[3]": {"details": "fluorometric ACE2 inhibition assay (AnaSpec)"}}, "note": "Where a SMILES comes first, the peptide text is derived from it. Bridges are numbered along the chain shown (N, C = ends). The star is where a group is joined. NOTA = O=C(O)CN1CCN(CC(=O)O)CCN(CC(=O)*)CC1"}
{"smiles": "CC(=O)NCC(=O)N[C@@H](CC(=O)O)C(=O)N[C@@H](Cc1ccc(O)cc1)C(=O)N[C@@H](CO)C(=O)N[C@@H](Cc1c[nH]cn1)C(=O)N[C@H]1CSSC[C@@H](C(=O)N[C@H](C(=O)N[C@@H](Cc2ccc(O)cc2)C(=O)N2CCC[C@H]2C(=O)N[C@@H](CC(=O)O)C(=O)N2CCC[C@H]2C(=O)N[C@@H](CCC(=O)O)C(=O)NCC(=O)NCC(=O)NCC(N)=O)[C@@H](C)O)NC(=O)[C@H](CCCCN)NC(=O)[C@H](Cc2c[nH]c3ccccc23)NC(=O)[C@H](Cc2c[nH]c3ccccc23)NC(=O)[C@@H]2CCCN2C(=O)[C@H](Cc2ccc(O)cc2)NC(=O)[C@H](Cc2ccc(O)cc2)NC(=O)[C@H](CCCNC(=N)N)NC(=O)[C@H](CC(C)C)NC(=O)[C@@H]2CCCN2C(=O)[C@H](CO)NC1=O", "note": "[DX600, reference compound]", "values": [{"measurement": "IC50", "setting": "[1]; [3]", "value": 114, "unit": "nM"}, {"measurement": "Specificity for ACE2", "setting": "[2]", "value": "specificity for ACE2 vs. ACE and carboxypeptidase A"}]}
{"smiles": "CC(C)C[C@H](NC(=O)[C@@H]1CCCN1C(=O)[C@H](CO)NC(=O)[C@H](CS)NC(=O)[C@H](Cc1c[nH]cn1)NC(=O)[C@H](CO)NC(=O)[C@H](Cc1ccc(O)cc1)NC(=O)[C@H](CC(=O)O)NC(=O)CNC(=O)CNC(=O)CNC(=O)CNC(=O)CN1CCN(CC(=O)O)CCN(CC(=O)O)CC1)C(=O)N[C@@H](CCCNC(=N)N)C(=O)N[C@@H](Cc1ccc(O)cc1)C(=O)N[C@@H](Cc1ccc(O)cc1)C(=O)N1CCC[C@H]1C(=O)N[C@@H](Cc1c[nH]c2ccccc12)C(=O)N[C@@H](Cc1c[nH]c2ccccc12)C(=O)N[C@@H](CCCCN)C(=O)N[C@@H](CS)C(=O)N[C@H](C(=O)N[C@@H](Cc1ccc(O)cc1)C(=O)N1CCC[C@H]1C(=O)N[C@@H](CC(=O)O)C(=O)N1CCC[C@H]1C(=O)N[C@@H](CCC(=O)O)C(=O)NCC(=O)NCC(=O)NCC(N)=O)[C@@H](C)O", "note": "[NOTA-PEP1] ({NOTA}-GGGGDYSHCSPLRYYPWWKCTYPDPEGGG-NH2)", "values": [{"measurement": "IC50", "setting": "[1]; [3]", "value": 2400, "unit": "nM"}]}
{"smiles": "CC(C)C[C@@H]1NC(=O)[C@@H]2CCCN2C(=O)[C@H](CO)NC(=O)[C@@H](NC(=O)[C@H](Cc2c[nH]cn2)NC(=O)[C@H](CO)NC(=O)[C@H](Cc2ccc(O)cc2)NC(=O)[C@H](CC(=O)O)NC(=O)CNC(=O)CCOCCOCCNC(=O)CN2CCN(CC(=O)O)CCN(CC(=O)O)CC2)CSSC[C@@H](C(=O)N[C@H](C(=O)N[C@@H](Cc2ccc(O)cc2)C(=O)N2CCC[C@H]2C(=O)N[C@@H](CC(=O)O)C(=O)N2CCC[C@H]2C(=O)N[C@@H](CCC(=O)O)C(=O)NCC(=O)NCC(=O)NCC(N)=O)[C@@H](C)O)NC(=O)[C@H](CCCCN)NC(=O)[C@H](Cc2c[nH]c3ccccc23)NC(=O)[C@H](Cc2c[nH]c3ccccc23)NC(=O)[C@@H]2CCCN2C(=O)[C@H](Cc2ccc(O)cc2)NC(=O)[C@H](Cc2ccc(O)cc2)NC(=O)[C@H](CCCNC(=N)N)NC1=O", "note": "[NOTA-PEP6]", "values": [{"measurement": "Change of observed ACE2 IC50 on addition of tris(2-carboxyethyl)phosphine (TCEP)", "setting": "[1]; TCEP reduces the disulfide bridge (producing linear NOTA-PEP5), Fig. 2E", "value": "markedly increased"}, {"measurement": "ACE2 inhibition compared with parent DX600 peptide", "setting": "[1]; fluorometric ACE2 inhibition assay (AnaSpec), Figs. 2C and 2D", "value": "nearly identical to DX600"}]}
{"smiles": "CC(C)C[C@@H]1NC(=O)[C@@H]2CCCN2C(=O)[C@H](CO)NC(=O)[C@@H](NC(=O)[C@H](Cc2c[nH]cn2)NC(=O)[C@H](CO)NC(=O)[C@H](Cc2ccc(O)cc2)NC(=O)[C@H](CC(=O)O)NC(=O)CNC(=O)CNC(=O)CNC(=O)CNC(=O)CN2CCN(CC(=O)O)CCN(CC(=O)O)CC2)CSSC[C@@H](C(=O)N[C@H](C(=O)N[C@@H](Cc2ccc(O)cc2)C(=O)N2CCC[C@H]2C(=O)N[C@@H](CC(=O)O)C(=O)N2CCC[C@H]2C(=O)N[C@@H](CCC(=O)O)C(=O)NCC(=O)NCC(=O)NCC(N)=O)[C@@H](C)O)NC(=O)[C@H](CCCCN)NC(=O)[C@H](Cc2c[nH]c3ccccc23)NC(=O)[C@H](Cc2c[nH]c3ccccc23)NC(=O)[C@@H]2CCCN2C(=O)[C@H](Cc2ccc(O)cc2)NC(=O)[C@H](Cc2ccc(O)cc2)NC(=O)[C@H](CCCNC(=N)N)NC1=O", "note": "[NOTA-PEP2] ({NOTA}-GGGGDYSHCSPLRYYPWWKCTYPDPEGGG-NH2; disulfide 9-20)", "values": [{"measurement": "IC50", "setting": "[1]; [3]", "value": 101, "unit": "nM"}]}
{"smiles": "CC(C)C[C@@H]1NC(=O)[C@@H]2CCCN2C(=O)[C@H](CO)NC(=O)[C@@H](NC(=O)[C@H](Cc2c[nH]cn2)NC(=O)[C@H](CO)NC(=O)[C@H](Cc2ccc(O)cc2)NC(=O)[C@H](CC(=O)O)NC(=O)CNC(=O)CCCCCNC(=O)CN2CCN(CC(=O)O)CCN(CC(=O)O)CC2)CSSC[C@@H](C(=O)N[C@H](C(=O)N[C@@H](Cc2ccc(O)cc2)C(=O)N2CCC[C@H]2C(=O)N[C@@H](CC(=O)O)C(=O)N2CCC[C@H]2C(=O)N[C@@H](CCC(=O)O)C(=O)NCC(=O)NCC(=O)NCC(N)=O)[C@@H](C)O)NC(=O)[C@H](CCCCN)NC(=O)[C@H](Cc2c[nH]c3ccccc23)NC(=O)[C@H](Cc2c[nH]c3ccccc23)NC(=O)[C@@H]2CCCN2C(=O)[C@H](Cc2ccc(O)cc2)NC(=O)[C@H](Cc2ccc(O)cc2)NC(=O)[C@H](CCCNC(=N)N)NC1=O", "note": "[NOTA-PEP4]", "values": [{"measurement": "IC50", "setting": "[1]; [3]", "value": 67.6, "unit": "nM"}]}
